Results reported in US20100267561A1, “HERBICIDAL PYRIDAZINONE DERIVATIVES” (priority 2007, published 2010).

Key:
Test in all cases: Test B pre-/postemergence plant response
Format in all cases: in vivo
[1] = test system: soybean (Glycine max); details: for Soybean plant response rating: 8 g ai/ha
Outline: (§1)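 Seeds were sown and sprayed preemergence, while plants at 2 to 18 cm (1- to 4-leaf stage) got postemergence sprays. Compounds were formulated in a non-phytotoxic solvent mixture with surfactant. After 13 to 15 days in a greenhouse, injury was rated visually against untreated controls, 0 (no effect) to 100 (complete control).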

[2] = test system: woolly cupgrass (Eriochloa villosa); details: for Cupgrass, Woolly plant response rating: 8 g ai/ha
Outline: as §1

[3] = test system: green foxtail (Setaria viridis); details: for Foxtail, Green plant response rating: 8 g ai/ha
Outline: as §1

[4] = test system: downy bromegrass (Bromus tectorum); details: for Bromegrass, Downy plant response rating: 8 g ai/ha
Outline: as §1

[5] = test system: corn (Zea mays); details: for Corn plant response rating: 8 g ai/ha
Outline: as §1

[6] = test system: morningglory (Ipomoea coccinea); details: for Morningglory plant response rating: 8 g ai/ha
Outline: as §1

[7] = test system: surinam grass (Brachiaria decumbens); details: for Surinam Grass plant response rating: 8 g ai/ha
Outline: as §1

[8] = test system: Russian thistle (Salsola iberica); details: Preemergence
Outline: as §1

[9] = test system: eastern black (E.B.) nightshade (Solanum ptycanthum); details: Preemergence
Outline: as §1

[10] = test system: bermudagrass (Cynodon dactylon); details: for Bermudagrass plant response rating: 8 g ai/ha
Outline: as §1

[11] = test system: pigweed (Amaranthus retroflexus); details: for Pigweed plant response rating: 8 g ai/ha
Outline: as §1

[12] = test system: velvetleaf (Abutilon theophrasti); details: for Velvetleaf plant response rating: 8 g ai/ha
Outline: as §1

[13] = test system: kochia (Kochia scoparia); details: for Kochia plant response rating: 8 g ai/ha
Outline: as §1

[14] = test system: Italian ryegrass (Lolium multiflorum); details: for Ryegrass, Italian plant response rating: 8 g ai/ha
Outline: as §1

[15] = Postemergence, 16 g ai/ha, scale 0 to 100
[16] = Postemergence, 31 g ai/ha, scale 0 to 100
[17] = Postemergence, 62 g ai/ha, scale 0 to 100, 0 no effect, 100 complete control
[18] = Preemergence, 16 g ai/ha, scale 0 to 100 (0 no effect, 100 complete control)
[19] = Preemergence, 31 g ai/ha, scale 0 to 100 (0 no effect, 100 complete control)
[20] = Preemergence, 62 g ai/ha, scale 0 to 100
[21] = Preemergence, 31 g ai/ha, 0 to 100 scale, 0 no effect, 100 complete control
[22] = Preemergence, 62 g ai/ha, 0 to 100 scale, 0 no effect, 100 complete control
[23] = 16 g ai/ha, scale 0 to 100 (0 no effect, 100 complete control)
[24] = 31 g ai/ha, scale 0 to 100 (0 no effect, 100 complete control)

SMILES: Cc1cc(-c2ccc(Cl)cc2)nn1-c1c(OC(=O)c2ccccc2)cnn(C)c1=O [Compound 48]
- Soybean plant response rating ([1]; postemergence, 0-100 scale): 0
- Plant response rating, Soybean [1, 15]: 0
- Plant response rating, Soybean [1, 16]: 0
- Plant response rating, Soybean [1, 17]: 0
- Plant response rating, Soybean [1, 18]: 0
- Plant response rating, Soybean [1, 19]: 0
- Plant response rating, Soybean [1, 20]: 0
- Soybean plant response rating ([1]; Preemergence, scale 0 to 100): 0
- Cupgrass, Woolly plant response rating ([2]; postemergence, 0-100 scale): 75
- Plant response rating, Cupgrass, Woolly [2, 15]: 85
- Plant response rating, Cupgrass, Woolly [2, 16]: 100
- Plant response rating, Cupgrass, Woolly [2, 17]: 100
- Plant response rating, Cupgrass, Woolly [2, 18]: 0
- Plant response rating, Cupgrass, Woolly [2, 21]: 0
- Plant response rating, Cupgrass, Woolly [2, 20]: 0
- Cupgrass, Woolly plant response rating ([2]; Preemergence, scale 0 to 100): 0
- Foxtail, Green plant response rating ([3]; postemergence, 0-100 scale): 70
- Plant response rating, Foxtail, Green [3, 15]: 98
- Plant response rating, Foxtail, Green [3, 16]: 100
- Plant response rating, Foxtail, Green [3, 17]: 100
- Plant response rating, Foxtail, Green [3, 18]: 80
- Plant response rating, Foxtail, Green [3, 21]: 100
- Plant response rating, Foxtail, Green [3, 20]: 100
- Foxtail, Green plant response rating ([3]; Preemergence, scale 0 to 100): 30
- Bromegrass, Downy plant response rating ([4]; postemergence, 0-100 scale): 5
- Plant response rating, Bromegrass, Downy [4, 15]: 50
- Plant response rating, Bromegrass, Downy [4, 16]: 60
- Plant response rating, Bromegrass, Downy [4, 17]: 90
- Plant response rating, Bromegrass, Downy [4, 18]: 0
- Plant response rating, Bromegrass, Downy [4, 21]: 70
- Plant response rating, Bromegrass, Downy [4, 20]: 80
- Bromegrass, Downy plant response rating ([4]; Preemergence, scale 0 to 100): 0
- Corn plant response rating ([5]; postemergence, 0-100 scale): 90
- Plant response rating, Corn [5, 15]: 95
- Plant response rating, Corn [5, 16]: 100
- Plant response rating, Corn [5, 17]: 100
- Plant response rating, Corn [5, 18]: 55
- Plant response rating, Corn [5, 21]: 70
- Plant response rating, Corn [5, 20]: 75
- Corn plant response rating ([5]; Preemergence, scale 0 to 100): 15
- Morningglory plant response rating ([6]; postemergence, 0-100 scale): 0
- Plant response rating, Morningglory [6, 15]: 0
- Plant response rating, Morningglory [6, 16]: 0
- Plant response rating, Morningglory [6, 17]: 0
- Plant response rating, Morningglory [6, 18]: 0
- Plant response rating, Morningglory [6, 19]: 0
- Plant response rating, Morningglory [6, 20]: 0
- Morningglory plant response rating ([6]; Preemergence, scale 0 to 100): 0
- Surinam Grass plant response rating ([7]; postemergence, 0-100 scale): 75
- Plant response rating, Surinam Grass [7, 15]: 90
- Plant response rating, Surinam Grass [7, 16]: 100
- Plant response rating, Surinam Grass [7, 17]: 100
- Plant response rating, Surinam Grass [7, 18]: 40
- Plant response rating, Surinam Grass [7, 19]: 65
- Plant response rating, Surinam Grass [7, 22]: 75
- Surinam Grass plant response rating ([7]; Preemergence, scale 0 to 100): 0
- Plant response rating, Russian Thistle [8, 23]: 0
- Plant response rating, Russian Thistle [8, 24]: 0
- Plant response rating, Russian Thistle ([8]; 62 g ai/ha, scale 0 to 100): 0
- Russian Thistle plant response rating ([8]; 8 g ai/ha, scale 0 to 100): 0
- Plant response rating, Nightshade, E. B. [9, 23]: 0
- Plant response rating, Nightshade, E. B. [9, 24]: 0
- Plant response rating, Nightshade, E. B. ([9]; 62 g ai/ha, scale 0 to 100): 20
- Nightshade, E. B. plant response rating ([9]; 8 g ai/ha, scale 0 to 100): 0
- Bermudagrass plant response rating ([10]; postemergence, 0-100 scale): 65
- Plant response rating, Bermudagrass [10, 15]: 98
- Plant response rating, Bermudagrass [10, 16]: 100
- Plant response rating, Bermudagrass [10, 17]: 100
- Bermudagrass plant response rating ([10]; Preemergence, scale 0 to 100 (0 no effect, 100 complete control)): 0
- Plant response rating, Bermudagrass [10, 18]: 0
- Plant response rating, Bermudagrass [10, 21]: 0
- Plant response rating, Bermudagrass [10, 20]: 0
- Pigweed plant response rating ([11]; postemergence, 0-100 scale): 0
- Plant response rating, Pigweed [11, 15]: 0
- Plant response rating, Pigweed [11, 16]: 0
- Plant response rating, Pigweed [11, 17]: 0
- Plant response rating, Pigweed [11, 18]: 0
- Plant response rating, Pigweed [11, 19]: 0
- Plant response rating, Pigweed [11, 20]: 0
- Pigweed plant response rating ([11]; Preemergence, scale 0 to 100): 0
- Velvetleaf plant response rating ([12]; postemergence, 0-100 scale): 0
- Plant response rating, Velvetleaf [12, 15]: 0
- Plant response rating, Velvetleaf [12, 16]: 0
- Plant response rating, Velvetleaf [12, 17]: 0
- Plant response rating, Velvetleaf [12, 18]: 0
- Plant response rating, Velvetleaf [12, 19]: 0
- Plant response rating, Velvetleaf [12, 22]: 0
- Velvetleaf plant response rating ([12]; Preemergence, scale 0 to 100): 0
- Kochia plant response rating ([13]; postemergence, 0-100 scale): 0
- Plant response rating, Kochia [13, 15]: 0
- Plant response rating, Kochia [13, 16]: 0
- Plant response rating, Kochia [13, 17]: 0
- Plant response rating, Kochia [13, 18]: 0
- Plant response rating, Kochia [13, 21]: 0
- Plant response rating, Kochia [13, 20]: 0
- Kochia plant response rating ([13]; Preemergence, scale 0 to 100): 0
- Ryegrass, Italian plant response rating ([14]; postemergence, 0-100 scale): 40
- Plant response rating, Ryegrass, Italian [14, 15]: 90
- Plant response rating, Ryegrass, Italian [14, 16]: 100
- Plant response rating, Ryegrass, Italian [14, 17]: 100
- Plant response rating, Ryegrass, Italian [14, 18]: 85
- Plant response rating, Ryegrass, Italian [14, 19]: 100
- Plant response rating, Ryegrass, Italian [14, 20]: 100
- Ryegrass, Italian plant response rating ([14]; Preemergence, scale 0 to 100): 85
